In EP1117659B1, “SUBSTITUTED 3-CYANOQUINOLINES AS PROTEIN TYROSINE KINASES INHIBITORS” (Wyeth Holdings Corporation, priority 1998, dated 2000):
Where “and” joins values, the source holds several entries; their conditions need not be identical. Identical values can stand only once. Counter-ions that a name gives are not always drawn. Like-named read-outs stand apart in the source and are kept apart here.

Key:
Type in all cases: biochemical
[1] = target: T1, epidermal growth factor receptor kinase (EGF-R Kinase, recombinant enzyme; His-tagged cytoplasmic domain of EGFR) (Homo sapiens, UniProt P00533); assay: Inhibition of Epidermal Growth Factor Receptor Kinase (EGF-R) using recombinant enzyme, RR-SRC peptide phosphorylation, 33P-ATP; settings: for inhibition at 0.5 µM: read-out: %Inh @ 0.5 µM; for IC50: recombinant enzyme, 90 min at room temperature
T1 construct: EGFR cDNA encoding amino acids 645 - 1186 preceded by Met-Ala-(His)6; Met-Ala-(His)6 (N); made in house; host or cells: Sf9 insect cells, recombinant baculovirus vHcEGFR52
Description: Representative test compounds were evaluated for their ability to inhibit the phosphorylation of the tyrosine residue of a peptide substrate catalyzed by the enzyme epidermal growth factor receptor kinase. The peptide substrate (RR-SRC) has the sequence arg-arg-leu-ile-glu-asp-ala-glu-tyr-ala-ala-arg-gly. The enzyme used in this test procedure is the His-tagged cytoplasmic domain of EGFR. A recombinant baculovirus (vHcEGFR52) was constructed containing the EGFR cDNA encoding amino acids 645 - 1186 preceded by Met-Ala-(His)6. Sf9 cells in 100 mm plates were infected at an moi of 10 pfu/cell and cells were harvested 48 h post infection. A cytoplasmic extract was prepared using 1% Triton X-100 and applied to Ni-NTA column. After washing the column with 20 mM imidazole, HcEGFR was eluted with 250 mM imidazole (in 50 mM Na2HPO4, pH 8.0, 300 mM NaCl). Fractions collected were dialyzed against 10 mM HEPES, pH 7.0, 50 mM NaCl, 10% glycerol, lug/mL antipain and leupeptin and 0.1 mM Pefabloc SC. The protein was frozen in dry ice/methanol and stored -70°C.
Test compounds were made into 10 mg/mL stock solutions in 100% dimethylsulfoxide (DMSO). Prior to experiment, stock solutions were diluted to 500 uM with 100% DMSO and then serially diluted to the desired concentration with HEPES buffer (30 mM HEPES pH 7.4).
For the enzyme reaction, 10 uL of each inhibitor (at various concentrations) were added to each well of a 96-well plate. To this was added 3 uL of enzyme (1:10 dilution in 10mM HEPES, pH 7.4 for final cone. of 1:120). This was allowed to sit for 10 min on ice and was followed by the addition of 5 ul peptide (80 uM final cone.), 10ul of 4X Buffer (Table A), 0.25 uL ^33P-ATP and 12 uL H2O. The reaction was allowed to run for 90 min at room temperature and was followed by spotting the entire volume on to precut P81 filter papers. The filter discs were washed 2X with 0.5% phosphoric acid and radioactivity was measured using a liquid scintillation counter.
The inhibition data for representative compounds of the invention are shown below in TABLE 1. […] The % inhibition of the test compound was determined for at least three different concentrations and the IC50 value was evaluated from the dose response curve. […] CPM(control) is in units of counts per minute and was a number expressing the amount of radiolabled ATP (γ-^33P) incorporated into the RR-SRC peptide substrate by the enzyme after 90 minutes at room temperature in the absence of test compound as measured by liquid scintillation counting. The CPM values were corrected for the background counts produced by ATP in the absence of the enzymatic reaction. […]

[2] = target: Epithelial Cell Kinase (ECK) (Homo sapiens, UniProt P29317); assay: Inhibition of Epithelial Cell Kinase (ECK), immobilized biotinylated peptide, HRP anti-phosphotyrosine readout; settings: IC50, substrate phosphorylation
Sequence of Epithelial Cell Kinase (ECK) (P29317 24-976, species assumed): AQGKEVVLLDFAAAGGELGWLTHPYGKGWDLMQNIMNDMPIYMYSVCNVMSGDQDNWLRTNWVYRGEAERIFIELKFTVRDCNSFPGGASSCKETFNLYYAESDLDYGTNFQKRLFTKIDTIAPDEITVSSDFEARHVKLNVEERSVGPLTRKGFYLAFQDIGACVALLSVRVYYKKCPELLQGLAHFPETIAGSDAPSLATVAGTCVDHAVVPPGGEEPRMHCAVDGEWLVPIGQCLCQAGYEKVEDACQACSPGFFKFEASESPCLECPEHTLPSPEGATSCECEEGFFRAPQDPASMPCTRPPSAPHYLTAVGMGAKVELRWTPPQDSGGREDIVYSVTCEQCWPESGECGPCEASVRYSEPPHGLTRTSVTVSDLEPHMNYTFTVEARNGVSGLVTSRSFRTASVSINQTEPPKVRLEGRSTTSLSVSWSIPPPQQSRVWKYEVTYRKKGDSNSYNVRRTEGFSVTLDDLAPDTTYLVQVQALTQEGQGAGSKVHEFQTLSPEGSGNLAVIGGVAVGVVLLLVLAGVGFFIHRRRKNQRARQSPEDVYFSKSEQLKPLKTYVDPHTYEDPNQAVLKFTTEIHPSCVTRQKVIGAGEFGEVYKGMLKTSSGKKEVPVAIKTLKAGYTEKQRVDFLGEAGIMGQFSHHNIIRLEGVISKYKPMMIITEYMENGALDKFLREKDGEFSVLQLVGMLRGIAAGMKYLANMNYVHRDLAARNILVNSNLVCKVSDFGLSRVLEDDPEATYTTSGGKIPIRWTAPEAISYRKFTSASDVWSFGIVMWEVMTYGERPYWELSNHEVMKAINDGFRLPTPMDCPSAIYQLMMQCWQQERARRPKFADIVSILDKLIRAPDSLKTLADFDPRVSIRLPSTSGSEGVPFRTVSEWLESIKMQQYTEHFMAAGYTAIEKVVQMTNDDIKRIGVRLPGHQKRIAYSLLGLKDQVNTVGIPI
Description: In this standard pharmacological test procedure, a biotinylated peptide substrate is first immobilized on neutravidin-coated microtiter plates. The test drug, the Epithelial Cell Kinase (ECK), Mg^++, sodium vanadate (a protein tyrosine phosphatase inhibitor), and an appropriate buffer to maintain pH (7.2) are then added to the immobilized substrate-containing microtiter wells. ATP is then added to initiate phosphorylation. After incubation, the assay plates are washed with a suitable buffer leaving behind phosphorylated peptide which is exposed to horse radish peroxidase (HRP)-conjugated anti-phosphotyrosine monoclonal antibody. The antibody-treated plates are washed again and the HRP activity in individual wells is quantified as a reflection of degree of substrate phosphorylation. […] Multiple entries for a given compound indication it was tested multiple times.

[3] = target: T2, Kinase insert Domain containing Receptor (KDR: the catalytic domain of the VEGF receptor) (Homo sapiens, UniProt P35968); assay: Inhibition of Kinase insert Domain containing Receptor (KDR), radioactive phosphorylation of Glu:Tyr copolymer; settings: IC50, substrate phosphorylation
T2 construct: KDR: the catalytic domain of the VEGF receptor
T2 sequence (P35968 834-1162 limits assumed): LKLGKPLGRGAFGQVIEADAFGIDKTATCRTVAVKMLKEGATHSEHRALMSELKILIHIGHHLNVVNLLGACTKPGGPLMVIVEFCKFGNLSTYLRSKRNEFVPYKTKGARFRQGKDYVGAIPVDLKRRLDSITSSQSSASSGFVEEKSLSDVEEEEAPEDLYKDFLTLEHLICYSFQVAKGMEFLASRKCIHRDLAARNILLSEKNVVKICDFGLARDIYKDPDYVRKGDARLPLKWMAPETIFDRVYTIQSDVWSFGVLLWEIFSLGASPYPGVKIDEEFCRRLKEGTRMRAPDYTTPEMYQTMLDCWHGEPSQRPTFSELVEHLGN
Description: In this standard pharmacological test procedure, KDR protein is mixed, in the presence or absence of a inhibitor compound, with a substrate peptide to be phosphorylated (a copolymer of glutamic acid and tyrosine, E:Y :: 4:1) and other cofactors such as Mg^++ and sodium vanadate (a protein tyrosine phosphatase inhibitor) in an appropriate buffer to maintain pH (7.2). ATP and a radioactive tracer (either P^32- or P^33- labeled ATP) is then add to initiate phosphorylation. After incubation, the radioactive phosphate associated with the acid-insoluble fraction of the assay mixture is then quantified as reflection of substrate phosphorylation. […] Multiple entries for a given compound indication it was tested multiple times.

[4] = target: Recombinant human MEK 1 (MAPKK) / recombinant human ERK2 (MAPK) (Mek-Erk) (Homo sapiens, UniProt P28482+Q02750); assay: Mitogen Activated Protein Kinase (MAPK) assay, two component coupled Mek-Erk test
Sequence of Recombinant human MEK 1 (MAPKK) / recombinant human ERK2 (MAPK) (Mek-Erk) (P28482 2-360): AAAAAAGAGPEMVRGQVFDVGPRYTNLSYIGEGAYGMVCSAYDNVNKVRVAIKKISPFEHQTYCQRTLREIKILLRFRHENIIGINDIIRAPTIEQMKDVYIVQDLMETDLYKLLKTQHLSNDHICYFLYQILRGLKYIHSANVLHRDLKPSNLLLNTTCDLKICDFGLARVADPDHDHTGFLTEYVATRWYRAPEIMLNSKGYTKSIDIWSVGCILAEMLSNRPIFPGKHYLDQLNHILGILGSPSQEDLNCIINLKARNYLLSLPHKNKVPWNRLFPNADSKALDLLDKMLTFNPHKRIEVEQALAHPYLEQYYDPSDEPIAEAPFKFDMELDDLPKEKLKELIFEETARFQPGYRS
Sequence of Recombinant human MEK 1 (MAPKK) / recombinant human ERK2 (MAPK) (Mek-Erk) (Q02750 whole entry): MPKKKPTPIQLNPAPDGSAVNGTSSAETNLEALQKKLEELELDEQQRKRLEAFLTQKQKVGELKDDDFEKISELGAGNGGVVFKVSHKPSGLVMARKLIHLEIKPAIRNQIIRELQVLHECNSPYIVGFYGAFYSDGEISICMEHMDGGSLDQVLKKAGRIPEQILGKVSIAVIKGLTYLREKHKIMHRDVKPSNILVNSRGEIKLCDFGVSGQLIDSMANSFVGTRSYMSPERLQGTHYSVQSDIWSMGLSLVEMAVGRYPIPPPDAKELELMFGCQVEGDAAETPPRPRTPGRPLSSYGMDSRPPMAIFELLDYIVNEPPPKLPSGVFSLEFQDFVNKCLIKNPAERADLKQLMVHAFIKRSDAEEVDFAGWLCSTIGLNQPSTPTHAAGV
Description: To evaluate inhibitors of the MAP (mitogen activated protein) kinase a two component coupled standard pharmacological test procedure, which measures phosphorylation of a serine/threonine residue in an appropriate sequence in the substrate in the presence and absence of a putative inhibitor, was used. Recombinant human MEK 1 (MAPKK) was first used to activate recombinant human ERK2 (MAPK) and the activated MAPK (ERK) was incubated with substrate (MBP peptide or MYC peptide) in the presence of ATP, Mg^+2 and radiolabeled ^33P ATP. The phosphorylated peptide was captured on a P 81 phosphocellulose filter (paper filter or embedded in microtiter plate) washed and counted by scintillation methods.
The peptide substrates used in the assay are MBP, peptide substrate ([sequence]), or synthetic Myc substrate, ([sequence]•5 TFA. The recombinant enzymes used were prepared as GST fusion proteins of human ERK 2 and human MEK 1. Inhibitor samples were prepared as 10X stocks in 10% DMSO and an appropriate aliquot was used to deliver either 10 ug/ml for a single point screening dose or 100, 10, 1, and 0.1 uM final concentration for a dose response curve. Final DMSO concentrations were less than or equal to 1%.
The reaction was run as follows in 50 mM Tris kinase buffer, pH 7.4 in a reaction volume of 50 ul. The appropriate volume of kinase buffer and inhibitor sample was added to the tube. Appropriate dilution of enzyme was delivered to give 2-5 ug recombinant MAPK (Erk ) per tube. The inhibitor was incubated with MAPK (Erk) for 30 min at 0° C. Recombinant Mek (MAPKK) ( 0.5-2.5 ug) or fully activated Mek (0.05-0.1 units) was added to activate the Erk and incubated for 30 min at 30° C. Then substrate and gamma ^33P ATP was were added to give a final concentration of 0.5- 1 mM MBPP or 250-500 uM Myc; 0.2-0.5 uCi gamma P 33 ATP/tube; 50 µM ATP final concentration. Samples were incubated at 30°C for 30 minutes and the reaction was stopped by adding 25 µl of ice cold 10 %TCA .After samples were chilled on ice for 30 min, 20 µl of sample was transferred onto P 81 phosphocellulose filter paper or appropriate MTP with embedded P 81 filter. Filter papers or MTP were washed 2 times with a large volume of 1% acetic acid, then 2 times with water. The filters or MTP were briefly air dried before addition of scintillant and samples were counted in the appropriate scintillation counter set up for reading ^33P isotope.
The raw data was captured as cpm. Sample replicates were averaged and corrected for background count. Mean cpm data was tabulated by group and % inhibition by a test compound was calculated as (corrected cpm control- corrected. cpm sample/control) X 100 = % inhibition.

| Compound | IC50 [1] | IC50 [2] | IC50 [3] | IC50 ([4]; read-out: Mek-Erk) | also measured |
| --- | --- | --- | --- | --- | --- |
| COc1cc2c(Nc3ccc4cn[nH]c4c3)c(C#N)cnc2cc1OCCN1CCOCC1 [Example 168, 4-(1H-Indazol-6-ylamino)-6-methoxy-7-(2-morpholin-4-yl-ethoxy)quinoline-3-carbonitrile] | > 1 µM | > 22.5 µM | 4.5 µM |  | inhibition at 0.5 µM [1]: 1% |
| COc1cc2ncc(C#N)c(Nc3ccc4ncccc4c3)c2cc1OC [Example 153, 6,7-Dimethoxy-4-(quinoline-6-ylamino)-quinoline-3-carbonitrile] | > 1 µM | > 28.1 µM | > 28.1 µM | > 100 µM | inhibition at 0.5 µM [1]: 14% |
| COc1cc2ncc(C#N)c(Nc3ccc4nn[nH]c4c3)c2cc1OCCCN1CCOCC1 [Example 140, 4-(3H-Benzotriazol-5-ylamino)-7-methoxy-6-(3-morpholin-4-yl-propoxy)-quinoline-3-carbonitrile hydrochloride] |  | 2.18 µM |  |  | IC50 ([4]; read-out: Mek-Erk µM, hydrochloride): 22 µM and 15 µM |
| COc1cc2ncc(C#N)c(Nc3ccc4[nH]ncc4c3)c2cc1OC [Example 137, 4-(1H-Indazol-5-ylamino)-6,7-dimethoxy-quinoline-3-carbonitrile] | 0.15 µM | > 2.9 µM | 29 µM and > 2.9 µM |  |  |
| CCOc1cc2ncc(C#N)c(Nc3ccc4c(c3)OCO4)c2cc1OCC [Example 98, 4-(Benzo[1,3]dioxol-5-ylamino)-6,7-diethoxy-quinoline-3-carbonitrile] |  | > 2.65 µM | 53 µM and > 2.65 µM |  |  |
| C=CC(=O)Nc1ccc2ncc(C#N)c(Nc3ccc(Sc4nccn4C)c(Cl)c3)c2c1 [Example 176, N-{4-[3-Chloro-4-(1-methyl-1H-imidazol-2-ylsulfanyl)-phenylamino]-3-cyano-quinolin-6-yl}-acrylamide] | 0.01 µM |  |  |  |  |
| 4-(2,3-Dihydro-1H-indol-6-ylamino)-6,7-diethoxy-quinoline-3-carbonitrile [Example 96] |  |  |  |  | %Inh @ 0.5 µM ([1]; 0.5 µM concentration of test compound): 6% |
| N#Cc1cnc2cc3c(cc2c1Nc1ccc2cn[nH]c2c1)OCCO3 [Example 125, 9-(1H-Indazol-6-ylamino)-2,3-dihydro[1,4]dioxino[2,3-g]quinoline-8-carbonitrile] |  |  |  | 35 µM |  |
| COc1cc2ncc(C#N)c(Nc3cccc4[nH]ccc34)c2cc1OC [Example 136, 4-(1H-Indol-4-ylamino)-6,7-dimethoxy-quinoline-3-carbonitrile] | > 1 µM | 0.871 µM | > 29 µM |  | inhibition at 0.5 µM [1]: 33% |
| COc1cc2ncc(C#N)c(Nc3cccc4c3CCCC4)c2cc1OC [Example 155, 6,7-Dimethoxy-4-(5,6,7,8,- tetrahydro-naphthalen-1-ylamino)-quinoline-3-carbonitrile] |  |  |  | 4 µM |  |
| COc1cc2ncc(C#N)c(Nc3ccc(Cl)c4ccccc34)c2cc1OC [Example 154, 4-(4-Chloro-naphthalen-1-ylamino)-6,7 -Dimethoxy-quinoline-3-carbonitrile] |  | 0.77 µM | 12.8 µM and > 2.57 µM |  |  |
| COc1ccc2c(Nc3ccc4cn[nH]c4c3)c(C#N)cnc2c1 [Example 143, 4-(1H-Indazol-6-ylamino)-7-methoxy-quinoline-3-carbonitrile] |  | > 31.7 µM | 47.6 µM and > 3.17 µM | 2 µM |  |
| COc1ccc(OC)c2c(Nc3ccc4cn[nH]c4c3)c(C#N)cnc12 [Example 138, 4-(1H-Indazol-6-ylamino)-5,8-dimethoxy-quinoline-3-carbonitrile] |  | > 29 µM | > 86.9 µM | > 100 µM |  |
| COc1cc2c(Nc3ccc4cn[nH]c4c3)c(C#N)cnc2cc1OCCN(C)C [Example 167, 7-(2-Dimethylaminoethoxy)-4-(1H-indazol-6-ylamino)-6-methoxyquinoline-3-carbonitrile] | > 1 µM |  |  | 8 µM | inhibition at 0.5 µM [1]: 0% |
| COc1cc2ncc(C#N)c(Nc3ccc4[nH]ccc4c3)c2cc1OC [Example 150, 4-(1H -Indol-5-ylamino)-6,7-Dimethoxy-quinoline-3-carbonitrile] | 0.0015 µM and 0.004 µM | > 29 µM | 0.581 µM |  |  |
| COc1cc2ncc(C#N)c(Nc3ccc4c(c3)NCC4)c2cc1OC [Example 113, 4-(2,3-Dihydro-1H-indol-6-ylamino)-6,7-methoxy-quinoline-3-carbonitrile] |  |  | 8.66 µM |  |  |
| COc1cc2ncc(C#N)c(Nc3ccc4[nH]cnc4c3)c2cc1OC [Example 151, 4-(1H -Benzoimidazol-5-ylamino)-6,7-dimethoxy-quinoline-3-carbonitrile] | > 1 µM | > 29 µM | 29 µM |  | inhibition at 0.5 µM [1]: 34% |
| CCOc1cc2ncc(C#N)c(Nc3ccc(Sc4nccn4C)c(Cl)c3)c2cc1OCC [Example 172, 4-[3-Chloro-4-(1-methyl-2-imidazolylthio)phenylamino]-6,7-diethoxy-3-quinolinecarbonitrile] | 0.09 µM |  |  |  |  |
| COc1cc2ncc(C#N)c(Nc3ccc4[nH]c(C)nc4c3)c2cc1OC [Example 152, 6,7-Dimethoxy-4-(2-methyl-1H -benzoimidazol-5-ylamino)-quinoline-3-carbonitrile] | > 1 µM | > 27.8 µM |  | > 100 µM | inhibition at 0.5 µM [1]: 24% |
| COc1cc2ncc(C#N)c(Nc3ccc(Sc4nccn4C)c(Cl)c3)c2cc1OC [Example 173, 4-[3-Chloro-4-(1-methyl-2-imidazolylthio)phenylamino]-6,7-dimethoxy-3-quinolinecarbonitrile] | 0.5 µM |  |  |  |  |
| COc1cc2c(Nc3ccc4cn[nH]c4c3)c(C#N)cnc2c(OC)c1OC [Example 128, 4-(1H-Indazol-6-ylamino)-6,7,8-trimethoxy-quinoline-3-carbonitrile] |  | > 53.3 µM | > 79.9 µM | > 100 µM and 100 µM |  |
| COc1cc2c(Nc3ccc4c(c3)NCC4)c(C#N)cnc2cc1OCCCc1ccncc1 [Example 119, 4-(2,3-Dihydro-1H-indol-6-ylamino)-6-methoxy-7-(3-pyridin-4-yl-propoxy)-quinoline-3-carbonitrile] |  | 22.1 µM and > 2.21 µM | 1.55 µM and 2.21 µM |  |  |
| COc1cc2ncc(C#N)c(Nc3ccc4cn[nH]c4c3)c2cc1OCCCN1CCOCC1 [Example 139, 4-(1H-Indazol-6-ylamino)-7-methoxy-6-(3-morpholin-4-yl-propoxy)-quinoline-3-carbonitrile hydrochloride] |  | > 2.18 µM | 21.8 µM and > 2.18 µM |  | IC50 ([4]; read-out: Mek-Erk µM): 15 µM |
| COc1ccc2c(Nc3ccc4[nH]ccc4c3)c(C#N)cnc2c1 [Example 146, 4-(1H -Indol-5-ylamino)-7-methoxy-quinoline-3-carbonitrile] |  |  |  | 3 µM |  |
| COc1cc2c(Nc3ccc4cn[nH]c4c3)c(C#N)cnc2cc1OCCCl [Example 166, 7-(2-Chloroethoxy)-4-(1H-indazol-6-ylamino)-6-methoxyquinoline-3-carbonitrile] |  | 0.762 µM | > 2.54 µM |  |  |
